Assays:
Assay type in all cases: biochemical
[1] = target: PAK3 (Homo sapiens, UniProt O75914); assay: In vitro PAK inhibition assay (SelectScreen, Ser/Thr 20 peptide)
Protocol: (§1) Compounds are screened in 1% DMSO (final) in the well. For 10 point titrations, 3-fold serial dilutions are conducted.
(§2) All Peptide/Kinase Mixtures are diluted to a 2× working concentration in the appropriate Kinase Buffer
The 2×PAK3/Ser/Thr 20 mixture is prepared in 50 mM HEPES pH 7.5, 0.01% BRIJ-35, 10 mM MgCl2, 1 mM EGTA.
(§3) This control yields 100% cleaved peptide in the Development Reaction.
(§4) The 100% Phosphorylation Control, which consists of a synthetically phosphorylated peptide of the same sequence as the peptide substrate, is designed to allow for the calculation of percent phosphorylation.
(§5) This control is designed to produce a 10-50%* phosphorylated peptide in the Kinase Reaction.
(§6) A known inhibitor control standard curve, 10 point titration, is run for each individual kinase on the same plate as the kinase to ensure the kinase is inhibited within an expected IC50 range previously determined.
(§7) Add the following solutions to a well in a 384-well plate: • 2.5 μL of 4× Test Compound OR (100 nL 100× Test Compound plus 2.4 μL kinase buffer) • 5 μL of 2× Peptide/Kinase (PAK) Mixture • 2.5 μL of 4×ATP Solution • 2. Shake the plate for 30-seconds • 3. Incubate the PAK Kinase Reaction at room temperature for 60-minutes • 4. Add 5 μL of Development Reagent Solution to each well • 5. Shake the plate for 30-seconds • 6. Incubate the Development Reaction for 60-minutes • 7. Determine the fluorescence using a fluorescence plate reader • 8. Analyze the fluorescence data
(§8) SelectScreen® Kinase Profiling Service uses XLfit from IDBS.
(§9) The representative IC50 value with a known inhibitor for each kinase was determined at the ATP bin nearest to the ATP Km app.

[2] = target: PAK2 (PAK65) (Homo sapiens, UniProt Q13177); assay: as above
Protocol: as §1, §2
The 2×PAK2 (PAK65)/Ser/Thr 20 mixture is prepared in 50 mM HEPES pH 7.5, 0.01% BRIJ-35, 10 mM MgCl2, 1 mM EGTA. The final 10 μL Kinase Reaction consists of 0.29-6 ng PAK2 (PAK65) and 2 μM Ser/Thr 20 in 50 mM HEPES pH 7.5, 0.01% BRIJ-35, 10 mM MgCl2, 1 mM EGTA.
as §3, §4, §5, §6, §7, §8, §9

[3] = target: PAK1 (Homo sapiens, UniProt Q13153); assay: In vitro PAK inhibition assay (SelectScreen, Ser/Thr 19 peptide)
Protocol: as §1, §2
The 2×PAK1/Ser/Thr 19 mixture is prepared in 50 mM HEPES pH 7.5, 0.01% BRIJ-35, 10 mM MgCl2, 1 mM EGTA.
as §3, §4, §5, §6, §7, §8, §9

[4] = target: PAK4 (Homo sapiens, UniProt O96013); assay: In vitro PAK inhibition assay (SelectScreen, Ser/Thr 20 peptide)
Protocol: as §1, §2
The 2×PAK4/Ser/Thr 20 mixture is prepared in 50 mM HEPES pH 7.5, 0.01% BRIJ-35, 10 mM MgCl2, 1 mM EGTA. The final 10 μL Kinase Reaction consists of 0.1-0.75 ng PAK4 and 2 μM Ser/Thr 20 in 50 mM HEPES pH 7.5, 0.01% BRIJ-35, 10 mM MgCl2, 1 mM EGTA. After the 1 hour Kinase Reaction incubation, 5 μL of a 1:256 dilution of Development Reagent A is added.
as §3, §4
The minimum Emission Ratio in a screen is established by the 0% Inhibition Control, which contains active kinase. This control is designed to produce a 10-50%* phosphorylated peptide in the Kinase Reaction.
as §6
as §7, with “Bar-coded Corning, low volume NBS, black 384-well plate (Corning Cat. #3676) • 1. Add the” for “Add the”
SelectScreen® Kinase Profiling Service uses XLfit from IDBS. The dose response curve is curve fit to model number 205 (sigmoidal dose-response model).
The table below provides specifications and data around each kinase. The representative IC50 value with a known inhibitor for each kinase was determined at the ATP bin nearest to the ATP Km app.

PAK2 (PAK65), sequence (Q13177 whole entry): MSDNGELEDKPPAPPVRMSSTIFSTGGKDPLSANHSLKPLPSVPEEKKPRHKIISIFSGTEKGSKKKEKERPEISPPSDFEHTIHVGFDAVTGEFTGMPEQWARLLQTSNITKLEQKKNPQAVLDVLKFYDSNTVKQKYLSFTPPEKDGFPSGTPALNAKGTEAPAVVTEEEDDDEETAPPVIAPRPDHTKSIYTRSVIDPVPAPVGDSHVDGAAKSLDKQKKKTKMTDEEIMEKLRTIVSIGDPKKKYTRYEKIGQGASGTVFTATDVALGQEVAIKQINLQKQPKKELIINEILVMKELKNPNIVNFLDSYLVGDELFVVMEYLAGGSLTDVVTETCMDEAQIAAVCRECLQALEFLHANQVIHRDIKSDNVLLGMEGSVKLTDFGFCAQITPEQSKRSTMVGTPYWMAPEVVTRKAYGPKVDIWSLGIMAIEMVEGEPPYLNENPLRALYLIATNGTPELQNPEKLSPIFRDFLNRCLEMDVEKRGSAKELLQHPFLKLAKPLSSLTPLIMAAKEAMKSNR
PAK1, sequence (Q13153 whole entry): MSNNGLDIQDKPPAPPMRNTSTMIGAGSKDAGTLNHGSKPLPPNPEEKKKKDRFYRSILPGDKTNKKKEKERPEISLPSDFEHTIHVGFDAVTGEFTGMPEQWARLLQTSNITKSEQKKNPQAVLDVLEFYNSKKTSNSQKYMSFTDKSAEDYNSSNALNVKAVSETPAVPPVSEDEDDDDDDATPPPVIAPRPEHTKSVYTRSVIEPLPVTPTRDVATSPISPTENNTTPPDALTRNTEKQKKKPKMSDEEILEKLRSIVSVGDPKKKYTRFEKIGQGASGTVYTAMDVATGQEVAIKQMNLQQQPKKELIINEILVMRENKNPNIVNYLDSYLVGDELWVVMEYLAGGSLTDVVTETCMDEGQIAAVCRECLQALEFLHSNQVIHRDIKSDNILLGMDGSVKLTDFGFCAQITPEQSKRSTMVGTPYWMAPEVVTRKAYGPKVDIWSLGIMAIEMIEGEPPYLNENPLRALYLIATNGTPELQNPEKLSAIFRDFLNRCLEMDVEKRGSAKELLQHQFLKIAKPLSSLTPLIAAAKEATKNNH
PAK3, sequence (O75914 whole entry): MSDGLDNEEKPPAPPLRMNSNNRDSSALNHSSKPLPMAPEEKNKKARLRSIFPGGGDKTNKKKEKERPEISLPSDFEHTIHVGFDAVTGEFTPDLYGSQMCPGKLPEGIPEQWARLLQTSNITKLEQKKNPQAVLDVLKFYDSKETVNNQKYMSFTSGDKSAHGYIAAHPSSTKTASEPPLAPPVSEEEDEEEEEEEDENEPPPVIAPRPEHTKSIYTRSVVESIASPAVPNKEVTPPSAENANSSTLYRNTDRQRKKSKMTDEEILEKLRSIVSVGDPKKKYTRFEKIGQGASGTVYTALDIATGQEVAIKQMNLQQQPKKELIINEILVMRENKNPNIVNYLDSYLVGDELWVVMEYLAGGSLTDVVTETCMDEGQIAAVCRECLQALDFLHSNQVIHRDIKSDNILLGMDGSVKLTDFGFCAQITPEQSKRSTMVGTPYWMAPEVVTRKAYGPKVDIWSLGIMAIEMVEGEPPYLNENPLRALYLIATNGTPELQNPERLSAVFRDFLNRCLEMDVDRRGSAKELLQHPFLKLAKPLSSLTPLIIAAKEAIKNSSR
PAK4, sequence (O96013 whole entry): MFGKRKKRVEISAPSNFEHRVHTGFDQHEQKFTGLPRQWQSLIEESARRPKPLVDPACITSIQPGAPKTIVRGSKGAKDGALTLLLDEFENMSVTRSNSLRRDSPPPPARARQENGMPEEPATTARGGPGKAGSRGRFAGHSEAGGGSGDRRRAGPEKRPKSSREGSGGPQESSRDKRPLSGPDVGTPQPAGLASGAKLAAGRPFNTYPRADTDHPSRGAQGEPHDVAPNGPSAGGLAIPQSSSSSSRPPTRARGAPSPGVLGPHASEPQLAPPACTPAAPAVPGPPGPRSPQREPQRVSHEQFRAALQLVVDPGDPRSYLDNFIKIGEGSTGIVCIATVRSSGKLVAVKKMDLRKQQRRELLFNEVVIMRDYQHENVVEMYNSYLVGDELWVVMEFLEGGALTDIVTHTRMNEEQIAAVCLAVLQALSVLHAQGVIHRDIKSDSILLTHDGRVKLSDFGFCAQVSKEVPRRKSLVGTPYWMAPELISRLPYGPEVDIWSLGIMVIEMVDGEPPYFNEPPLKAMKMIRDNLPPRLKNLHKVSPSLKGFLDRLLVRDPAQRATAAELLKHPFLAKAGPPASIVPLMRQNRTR

IC50 [1] [nM] | IC50 [2] [nM] | IC50 [3] [nM] | IC50 [4] [nM] | SMILES
> 5000 | 500 to 5000 | > 5000 | ≥ 5000 | CCn1c(=O)c(-c2ccc(-c3cn[nH]c3)cc2)cc2cnc(Nc3ccc(N4CCN(C)CC4)cc3)nc21
500 to 5000 | 50 to 500 | 500 to 5000 | ≥ 5000 | CCn1c(=O)c(-c2ccc(-c3ccn[nH]3)cc2)cc2cnc(Nc3ccc(N4CCN(C)CC4)cc3)nc21
> 5000 | 500 to 5000 | 500 to 5000 | ≥ 5000 | CCn1c(=O)c(-c2nc(C)sc2C)cc2cnc(Nc3ccc(N4CCN(C)CC4)cc3)nc21
> 5000 | > 5000 | > 5000 | ≥ 5000 | CCn1c(=O)c(-c2sc(C)nc2C)cc2cnc(Nc3ccc(N4CCN(C)CC4)cc3)nc21
< 50 | < 50 | < 50 | ≥ 5000 | CCn1c(=O)c(-c2ccc(-c3noc(C(F)(F)F)n3)cc2Cl)cc2cnc(Nc3ccc(N4CCN(C(C)C)CC4)cc3)nc21
< 50 | < 50 | < 50 | 500 to 5000 | CCn1c(=O)c(-c2ccc(-c3noc(C)n3)cc2Cl)cc2cnc(Nc3ccc(N4CCN(C(C)C)CC4)cc3)nc21
< 50 | < 50 | < 50 | ≥ 5000 | CCn1c(=O)c(-c2ccc(-c3noc(C)n3)cc2Cl)cc2cnc(Nc3ccc(N4CCN(C)CC4)c(F)c3)nc21
< 50 | < 50 | < 50 | 500 to 5000 | CCn1c(=O)c(-c2ccc(-c3scnc3C)cc2Cl)cc2cnc(Nc3ccc(N4CCNCC4)cc3)nc21
50 to 500 | < 50 | < 50 | ≥ 5000 | CCN1CCN(c2ccc(Nc3ncc4cc(-c5ccc(-c6scnc6C)cc5Cl)c(=O)n(CC)c4n3)cc2)CC1
50 to 500 | 50 to 500 | < 50 | ≥ 5000 | CCn1c(=O)c(-c2ccc(-c3noc(C)n3)cc2)cc2cnc(Nc3ccc(N4CCN(C)CC4)cc3)nc21
< 50 | < 50 | < 50 | 500 to 5000 | CCn1c(=O)c(-c2ccc(-c3cccnc3)cc2Cl)cc2cnc(Nc3ccc(C4CCNCC4)c(F)c3)nc21
50 to 500 | < 50 | < 50 | 500 to 5000 | CCn1c(=O)c(-c2ccc(-c3ccc(C)nc3)cc2Cl)cc2cnc(Nc3ccc(N4CCN(C)CC4)cc3)nc21
< 50 | < 50 | < 50 | ≥ 5000 | CCn1c(=O)c(-c2ccc(-c3cccnc3C)cc2Cl)cc2cnc(Nc3ccc(N4CCN(C)CC4)cc3)nc21
> 5000 | 50 to 500 | > 5000 | ≥ 5000 | CCn1c(=O)c(-c2ccc(-c3ccc(C(=O)NC)nc3)cc2Cl)cc2cnc(Nc3ccc(N4CCN(C)CC4)cc3)nc21
< 50 | < 50 | < 50 | ≥ 5000 | CCn1c(=O)c(-c2ccc(-c3ccnc(C)c3)cc2Cl)cc2cnc(Nc3ccc(N4CCN(C)CC4)cc3)nc21
< 50 | < 50 | < 50 | 500 to 5000 | CCn1c(=O)c(-c2ccc(-c3cccnc3)cc2Cl)cc2cnc(Nc3ccc(C4CCNC4)cc3)nc21 (centres unmarked)
< 50 | < 50 | < 50 | 500 to 5000 | CCn1c(=O)c(-c2ccc(-c3noc(C)n3)cc2Cl)cc2cnc(Nc3ccc(C4CCNC4)cc3)nc21 (centres unmarked)
< 50 | < 50 | < 50 | 500 to 5000 | CCn1c(=O)c(-c2ccc(-c3noc(C)n3)cc2Cl)cc2cnc(Nc3ccc(C4CCNC4)c(F)c3)nc21 (centres unmarked)

IC50 [1] [nM] | IC50 [2] [nM] | IC50 [3] [nM] | IC50 [4] [nM] | SMILES
< 50 | < 50 | < 50 | 50 to 500 | CCn1c(=O)c(-c2ccc(-c3noc(C)n3)cc2Cl)cc2cnc(Nc3ccc(N4CCNCC4)c(F)c3)nc21
50 to 500 | < 50 | < 50 | ≥ 5000 | CCn1c(=O)c(-c2ccc(-c3ccnc(C(=O)NC)c3)cc2Cl)cc2cnc(Nc3ccc(N4CCN(C)CC4)cc3)nc21
50 to 500 | 50 to 500 | < 50 | ≥ 5000 | CCn1c(=O)c(-c2ccc(-c3ccnc(C(=O)NC)c3)cc2Cl)cc2cnc(Nc3ccc(C4CCN(C)CC4)cc3)nc21
< 50 | < 50 | < 50 | 500 to 5000 | CCn1c(=O)c(-c2ccc(-c3cccnc3)cc2Cl)cc2cnc(Nc3ccc(C4CCN(C)CC4)cc3)nc21
< 50 | < 50 | < 50 | 500 to 5000 | CCN1CCC(c2ccc(Nc3ncc4cc(-c5ccc(-c6cccnc6)cc5Cl)c(=O)n(CC)c4n3)cc2)CC1
50 to 500 | < 50 | < 50 | 500 to 5000 | CCN1CCC(c2ccc(Nc3ncc4cc(-c5ccc(-c6cnc(C)s6)cc5Cl)c(=O)n(CC)c4n3)cc2)CC1
> 5000 | 50 to 500 | 500 to 5000 | ≥ 5000 | CCn1c(=O)c(-c2ccc(-c3ccc(C(=O)NC)nc3)cc2Cl)cc2cnc(Nc3ccc(C4CCN(C)CC4)cc3)nc21
50 to 500 | < 50 | < 50 | 500 to 5000 | CCn1c(=O)c(-c2ccc(-c3ccc(C)nc3)cc2Cl)cc2cnc(Nc3ccc(C4CCN(C)CC4)cc3)nc21
< 50 | < 50 | < 50 | ≥ 5000 | CCn1c(=O)c(-c2ccc(-c3cccnc3C)cc2Cl)cc2cnc(Nc3ccc(C4CCN(C)CC4)cc3)nc21
500 to 5000 | 500 to 5000 | 50 to 500 | ≥ 5000 | CCn1c(=O)c(-c2ccc(-c3cccnc3)cc2Cl)cc2cnc(Nc3ccccc3)nc21
< 50 | < 50 | > 5000 | 500 to 5000 | CCn1c(=O)c(-c2ccc(-c3ccnc(C)c3)cc2Cl)cc2cnc(Nc3ccc(C4CCN(C)CC4)cc3)nc21
< 50 | < 50 | < 50 | 500 to 5000 | CCN1CCC(c2ccc(Nc3ncc4cc(-c5ccc(-c6cnc(C)s6)cc5Cl)c(=O)n(CC)c4n3)cc2F)CC1
< 50 | < 50 | < 50 | 500 to 5000 | CCn1c(=O)c(-c2ccc(-c3cnc(C)s3)cc2Cl)cc2cnc(Nc3ccc(C4CCNC4)cc3)nc21 (centres unmarked)
< 50 | < 50 | < 50 | 500 to 5000 | CCn1c(=O)c(-c2ccc(-c3noc(C)n3)cc2Cl)cc2cnc(Nc3ccc(C4CCNCC4)c(F)c3)nc21
< 50 | < 50 | < 50 | 500 to 5000 | CCn1c(=O)c(-c2ccc(-c3cnc(C)s3)cc2Cl)cc2cnc(Nc3ccc(C4CCNCC4)c(F)c3)nc21
50 to 500 | 50 to 500 | 50 to 500 | ≥ 5000 | CCn1c(=O)c(-c2ccc(-c3ccnc(C(=O)NC)c3)cc2Cl)cc2cnc(Nc3ccc(C4CCNCC4)cc3)nc21
50 to 500 | < 50 | < 50 | ≥ 5000 | CCN1CCC(c2ccc(Nc3ncc4cc(-c5ccc(-c6ccnc(C)c6)cc5Cl)c(=O)n(CC)c4n3)cc2)CC1

— patent US20140163026A1, “8-ETHYL-6-(ARYL)PYRIDO[2,3-D]PYRIMIDIN-7(8H)-ONES FOR THE TREATMENT OF NERVOUS SYSTEM DISORDERS AND CANCER” (Afraxis Holdings, Inc., priority 2011, published 2014)
